{
  "source": "ChEMBL document CHEMBL1121531",
  "about": "“Steroidal alpha-methylene delta-lactones as potential antitumor agents” (J Med Chem, 1980)",
  "format_in_all_cases": "cell-based",
  "key": {"[1]": {"experiment": "Dose that required to inhibit cell growth for cytotoxicity against human nasopharyngeal carcinoma (KB) cells in culture", "settings": "read-out: LD50 (the source's name)"}, "[2]": {"experiment": "(§1) Dose that required to inhibit cell growth for cytotoxicity against HEp-2 cells in culture", "settings": "human, HEp-2 cells; read-out: LD50 (the source's name)"}, "[3]": {"system": "HEp-2", "experiment": "as §1", "settings": "human, hep-2"}},
  "data": [
    {"smiles": "C=C1CC2C3CC[C@H]4CC(O)CCC4(C)C3CCC2(C)OC1=O", "note": "(some centres undefined)", "values": [
      {"measurement": "GI50", "setting": "[1]", "result": 1, "unit": "µg/mL"}
    ]},
    {"smiles": "C=C1CC2(C)C3CCC4(C)C(OC(C)=O)CCC4C3CC[C@H]2OC1=O", "note": "(some centres undefined)", "values": [
      {"measurement": "GI50", "setting": "[1]", "result": 0.72, "unit": "µg/mL"}
    ]},
    {"smiles": "C=C1CC2(C)C3CCC4(C)C(O)CCC4C3CC[C@H]2OC1=O", "note": "(some centres undefined)", "values": [
      {"measurement": "GI50", "setting": "[1]", "result": 0.76, "unit": "µg/mL"}
    ]},
    {"smiles": "C=C1CC2(CCC3(C)[C@@H](CC[C@H]4[C@@H]5CCC(=O)C5(C)CC[C@@H]43)C2)OC1=O", "note": "(some centres undefined)", "values": [
      {"measurement": "CC50", "setting": "[2]", "result": 0.58, "unit": "µg/mL"}
    ]},
    {"smiles": "C=C1CC2(C)C3CCC4(C)C(CCCCCCCC)CCC4C3CC[C@H]2OC1=O", "note": "(some centres undefined)", "values": [
      {"measurement": "GI50", "setting": "[1]", "result": 0.82, "unit": "µg/mL"}
    ]},
    {"smiles": "CC(=O)[C@H]1CC[C@H]2[C@@H]3CC[C@H]4CC(=O)CC[C@]4(C)[C@H]3CC[C@]12C", "values": [
      {"measurement": "CC50", "setting": "[2]", "result": 0.84, "unit": "µg/mL"}
    ]},
    {"smiles": "C[C@]12CC[C@H]3[C@@H](CCC4=CC(=O)CC[C@@]43C)[C@@H]1CC[C@@H]2O", "note": "[TESTOSTERONE]", "values": [
      {"measurement": "GI50", "setting": "[1]", "result": 1.27, "unit": "µg/mL"},
      {"measurement": "CC50", "setting": "[2]", "result": 0.44, "unit": "µg/mL"},
      {"measurement": "LD50", "setting": "[3]", "result": 0.58, "unit": "µg/mL"}
    ]}
  ]
}
